Experiment [1] concerns tyrosine aminotransferase (TAT) activity in HepG2 cells. As to the kind of experiment: Induction of TAT enzyme activity in HepG2 cells. It counts as cell-based, human. The note with it: for EC50: 24 h; for Efficacy, induction of TAT enzyme activity: relative to dexamethasone, GRM-01 maximum at 10 µM. Here is the method:
TAT is a key enzyme in gluconeogenesis under the control of glucocorticoids and their interaction with the GR ([Panin and Usynin, 2008]), where induction of TAT expression is mediated through GR transactivation.
HepG2 cells were seeded at 20,000 cells/well in an Eagles’ minimal essential medium (EMEM)-based cell culture medium (Supplementary Material) in 96-well plates and incubated for 24 h in standard conditions. […] Medium was removed, cells washed with 50 μL of phosphate buffered saline (PBS) solution and lysis buffer added (45 µL/well) for a 20-min incubation in agitation at 1,200 rpm at room temperature. Detection buffer (150 µL/well) was added for a 2-h incubation after which the reaction was stopped, followed by a 30-min incubation, all at 37°C. This reaction solution was transferred to an absorbance detection plate (5 µL/well) to measure TAT expression (Envision plate reader, PerkinElmer).
The HepG2 cell culture medium was comprised of 500 mL of Eagles’ minimal essential medium (EMEM) without L-glutamine, 5 mL of 100X penicillin/streptomycin, 5 mL of Ultraglutamine I Supplement 200 mM, 5 mL of non-essential amino acids (NEAA) 100X (all from Lonza), and 50 mL of FBS (Sigma).
% activation= compound -minmax- min ×100
where min = TAT expression in medium only, max = TAT expression after stimulation with dexamethasone

Experiment [2] has as its system LPS-induced TNF-α release in rat whole blood. In words: Inhibition of LPS-induced TNF-α release in rat whole blood. It is filed as cell-based. The note with it: 18 h.
Procedure: Arterial blood was collected from male Sprague-Dawley rats (180–250 g; Janvier Labs, Le Genest-Saint-Isle, France) in heparin syringes. […] Plasma was collected via centrifugation and TNF-α measured using a TNFalpha Kit (PerkinElmer, Waltham, MA, United States), according to manufacturers’ instructions, and a microplate reader (EnVision Multilabel Reader®, PerkinElmer; Supplementary Material). The IC50 values for inhibition of TNF-α release were calculated by fitting concentration response curves to a four parameter nonlinear regression model using ActivityBase (XLfit® software; ID Business Solutions Ltd.). […] In addition, IC50,free values were determined by correcting the IC50 values for plasma protein binding (PPB); see the Supplementary Material for the calculation.
The immuno-assay-buffer provided in the kit was diluted 1:10 in water and the mouse TNF-α analyte standard was diluted in rat plasma (30,000–4 pg/mL). […] After a 30-min incubation at room temperature, the plates were read using an EnVision Multilabel Reader® (PerkinElmer) equipped with the ALPHA option using the AlphaScreen standard settings. […]
Experiment [3] relates to LPS-induced IFN-γ release in human whole blood. As to the kind of experiment: Inhibition of LPS-induced IFN-γ release in human whole blood. It counts as cell-based. The note with it: 24 h.
Procedure: Appropriate control wells were included (2 μL DMSO ± LPS). Subsequently, 1 mL of whole blood solution from each well was incubated at 37°C for 24 h in LPS-containing culture tubes, where final test compound concentrations were 0.0032, 0.016, 0.08, 0.4, 2, and 10 μM. Culture supernatant was harvested using the Seraplas® V11 valve filter (Sarstedt, Nümbrecht, Germany) and IFN-γ determined using validated methods with the V-PLEX assay (V-PLEX Proinflammatory Panel 1 Human Kit, Meso Scale Discovery, Rockville, MD, United States), as shown in Supplementary Table S1. […] IC50 values corrected for PPB were also determined, giving IC50,free values (using the same formula as for the TNF-α assay in rat whole blood).
Experiment [4] concerns the target T1, human MR (Homo sapiens, UniProt P08235).
T1 construct: host or cells: insect Sf9 cells
T1 sequence (P08235 1-984): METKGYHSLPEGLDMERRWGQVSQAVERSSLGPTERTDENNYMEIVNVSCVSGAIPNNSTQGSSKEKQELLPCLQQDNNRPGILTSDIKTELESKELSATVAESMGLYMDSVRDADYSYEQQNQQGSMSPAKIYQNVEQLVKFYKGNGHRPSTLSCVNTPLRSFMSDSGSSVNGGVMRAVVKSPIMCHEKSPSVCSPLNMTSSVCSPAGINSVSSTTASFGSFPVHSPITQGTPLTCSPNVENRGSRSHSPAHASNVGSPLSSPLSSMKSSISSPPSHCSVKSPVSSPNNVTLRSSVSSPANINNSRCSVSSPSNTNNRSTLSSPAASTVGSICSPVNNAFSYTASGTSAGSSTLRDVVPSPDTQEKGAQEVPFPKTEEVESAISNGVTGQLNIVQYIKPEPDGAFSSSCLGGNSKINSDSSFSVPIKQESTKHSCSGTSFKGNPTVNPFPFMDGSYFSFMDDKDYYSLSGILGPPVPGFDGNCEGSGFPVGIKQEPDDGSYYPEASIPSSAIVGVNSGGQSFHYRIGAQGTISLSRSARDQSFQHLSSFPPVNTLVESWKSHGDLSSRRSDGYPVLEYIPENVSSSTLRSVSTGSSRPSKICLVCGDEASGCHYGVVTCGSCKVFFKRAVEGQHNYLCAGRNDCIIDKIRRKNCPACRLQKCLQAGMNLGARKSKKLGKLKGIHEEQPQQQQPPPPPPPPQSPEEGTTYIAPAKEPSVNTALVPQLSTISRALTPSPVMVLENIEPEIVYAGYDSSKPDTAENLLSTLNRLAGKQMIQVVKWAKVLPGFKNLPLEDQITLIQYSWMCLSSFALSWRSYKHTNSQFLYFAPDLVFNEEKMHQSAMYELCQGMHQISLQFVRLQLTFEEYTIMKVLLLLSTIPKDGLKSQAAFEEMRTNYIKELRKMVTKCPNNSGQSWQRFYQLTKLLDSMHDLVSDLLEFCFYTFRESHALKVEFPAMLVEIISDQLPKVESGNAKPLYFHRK
As to the kind of experiment: Human MR radioligand binding (3H-aldosterone, recombinant MR from Sf9 cells). The note with it: 3H-aldosterone 0.4 nM, 20 h, 4°C. Here is the method: Scintillation counting of bound radioligand was conducted after 6 and 20 h of incubation (at 4°C), respectively. […] Scintillation counting of bound radioligand was conducted after 20 h of incubation at 4°C.
The same statistical methods were used for the MR binding assays, but using MathIQ™ software (ID Business Solutions Ltd., Woking, United Kingdom).
Percent inhibition of control specific binding was calculated as follows: […]
The half-maximal inhibitory concentration (IC50; i.e., the concentration causing a half-maximal inhibition of control specific binding) and Hill coefficients (nH) were determined by non-linear regression analysis of the competition curves generated with mean replicate values using the following Hill equation curve fitting: Y=D+ A-D1+ C/C50nH , where Y = specific binding, A = left asymptote of the curve, D = right asymptote of the curve, C = compound concentration, C50 = IC50, and nH = slope factor.
The inhibition constants (Ki) were calculated using the Cheng Prusoff equation:
where L = concentration of radioligand employed in the assay, and KD = affinity of the radioligand for the receptor (a Scatchard plot was used to determine the KD) (Cheng and Prusoff, 1973).

SMILES strings stand for the structures. “And” between values parts separate entries of the source, which are not always exact repeats. Equal entries are not always repeated.

What is called EC50 is the concentration needed to bring the measured effect to its halfway point. A lower EC50 goes with an effect from little substance. As usually defined, the IC50 is the concentration that gives 50% inhibition. As usually defined, the Ki is a measure of affinity in units of concentration, obtained from inhibition or displacement.

In the case of `C[C@]12C=CC(=O)C=C1CC[C@@H]1[C@@H]2[C@@H](O)C[C@@]2(C)[C@H]1CC[C@]2(O)C(=O)CO` [Prednisolone], the EC50 is 0.284 ± 0.113 µM in experiment [1] and 0.283 µM in experiment [1] (Homo sapiens, HepG2, 24 h). Further, the “Efficacy, induction of TAT enzyme activity” value in experiment [1] is 92.4 ± 5.3%; in experiment [1] (listed as prednisolone) it was 92.4% and 92%. The IC50 in experiment [2] was determined as 0.0081 ± 0.0021 µM; in experiment [3], 0.0134 ± 0.00795 µM; in experiment [4] (read-out: Mineralocorticoid receptor IC50), 0.00078 µM. The “Inhibition of LPS-induced TNF-α release” value in experiment [2] was 99 ± 3%. In addition, the results for the “Inhibition of LPS-induced IFN-γ release” value in experiment [3] and in experiment [3] (listed as prednisolone) were 99.3 ± 2.8% and 99%, respectively. The Ki in experiment [4] (read-out: Mineralocorticoid receptor Ki) was 0.00026 µM.
